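Dose response: 5 concentrations. Exposure: 48 h. Format: 96-well plates. Endpoint: linear interpolation; highest concentration if not reached. Here, GI50 denotes the concentration required for 50% inhibition of growth. TGI is the concentration that stops growth completely.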
How the values were obtained:
Experiment in all cases: NCI anticancer screen, dose series, 48 h
786-0 renal = test system: 786-0 renal
A498 renal = test system: A498 renal
ACHN renal = test system: ACHN renal
BT-549 breast = test system: BT-549 breast
CAKI-1 renal = test system: CAKI-1 renal
CCRF-CEM leukemia = test system: CCRF-CEM leukemia
COLO 205 colon = test system: COLO 205 colon
DU-145 prostate = test system: DU-145 prostate
EKVX NSCLC = test system: EKVX NSCLC
HCT-116 colon = test system: HCT-116 colon
HCT-15 colon = test system: HCT-15 colon
HL-60(TB) leukemia = test system: HL-60(TB) leukemia
HS 578T breast = test system: HS 578T breast
HT29 colon = test system: HT29 colon
IGROV1 ovarian = test system: IGROV1 ovarian
K-562 leukemia = test system: K-562 leukemia
KM12 colon = test system: KM12 colon
LOX IMVI melanoma = test system: LOX IMVI melanoma
M14 melanoma = test system: M14 melanoma
MALME-3M melanoma = test system: MALME-3M melanoma
MCF7 breast = test system: MCF7 breast
MDA-MB-231 breast = test system: MDA-MB-231 breast
MDA-MB-435 = test system: MDA-MB-435
MDA-N = test system: MDA-N
MOLT-4 leukemia = test system: MOLT-4 leukemia
NCI-H226 lung = test system: NCI-H226 lung
NCI-H23 lung = test system: NCI-H23 lung
NCI/ADR-RES ovarian = test system: NCI/ADR-RES ovarian
OVCAR-3 ovarian = test system: OVCAR-3 ovarian
OVCAR-5 ovarian = test system: OVCAR-5 ovarian
OVCAR-8 ovarian = test system: OVCAR-8 ovarian
PC-3 prostate = test system: PC-3 prostate
RPMI-8226 leukemia = test system: RPMI-8226 leukemia
SF-268 CNS = test system: SF-268 CNS
SF-539 CNS = test system: SF-539 CNS
SK-MEL-2 melanoma = test system: SK-MEL-2 melanoma
SK-MEL-28 melanoma = test system: SK-MEL-28 melanoma
SK-MEL-5 melanoma = test system: SK-MEL-5 melanoma
SK-OV-3 ovarian = test system: SK-OV-3 ovarian
SN12C renal = test system: SN12C renal
SNB-19 CNS = test system: SNB-19 CNS
SW-620 colon = test system: SW-620 colon
T-47D breast = test system: T-47D breast
U251 CNS = test system: U251 CNS
UACC-62 melanoma = test system: UACC-62 melanoma
UO-31 renal = test system: UO-31 renal
A549 NSCLC = test system: A549 NSCLC
HOP-62 NSCLC = test system: HOP-62 NSCLC
HOP-92 NSCLC = test system: HOP-92 NSCLC
NCI-H460 lung = test system: NCI-H460 lung
NCI-H522 lung = test system: NCI-H522 lung
OVCAR-4 ovarian = test system: OVCAR-4 ovarian
SF-295 CNS = test system: SF-295 CNS
SNB-75 CNS = test system: SNB-75 CNS
TK-10 renal = test system: TK-10 renal
UACC-257 melanoma = test system: UACC-257 melanoma

O=C(c1ccc(Cl)cc1)N(C(=O)N1CCCCC1)c1ccccc1
TGI (786-0 renal): > 100 µM
TGI (A498 renal): > 100 µM
TGI (ACHN renal): > 100 µM
TGI (BT-549 breast): > 100 µM
TGI (CAKI-1 renal): > 100 µM
TGI (CCRF-CEM leukemia): > 100 µM
TGI (COLO 205 colon): > 100 µM
TGI (DU-145 prostate): > 100 µM
TGI (EKVX NSCLC): > 100 µM
TGI (HCT-116 colon): > 100 µM
TGI (HCT-15 colon): > 100 µM
TGI (HL-60(TB) leukemia): > 100 µM
TGI (HS 578T breast): > 100 µM
TGI (HT29 colon): > 100 µM
TGI (IGROV1 ovarian): > 100 µM
TGI (K-562 leukemia): > 100 µM
TGI (KM12 colon): > 100 µM
TGI (LOX IMVI melanoma): > 100 µM
TGI (M14 melanoma): > 100 µM
TGI (MALME-3M melanoma): > 100 µM
TGI (MCF7 breast): > 100 µM
TGI (MDA-MB-231 breast): > 100 µM
TGI (MDA-MB-435): > 100 µM
TGI (MDA-N): > 100 µM
TGI (MOLT-4 leukemia): 72 µM
TGI (NCI-H226 lung): > 100 µM
TGI (NCI-H23 lung): > 100 µM
TGI (NCI/ADR-RES ovarian): > 100 µM
TGI (OVCAR-3 ovarian): > 100 µM
TGI (OVCAR-5 ovarian): > 100 µM
TGI (OVCAR-8 ovarian): > 100 µM
TGI (PC-3 prostate): > 100 µM
TGI (RPMI-8226 leukemia): > 100 µM
TGI (SF-268 CNS): > 100 µM
TGI (SF-539 CNS): > 100 µM
TGI (SK-MEL-2 melanoma): > 100 µM
TGI (SK-MEL-28 melanoma): > 100 µM
TGI (SK-MEL-5 melanoma): > 100 µM
TGI (SK-OV-3 ovarian): > 100 µM
TGI (SN12C renal): > 100 µM
TGI (SNB-19 CNS): > 100 µM
TGI (SW-620 colon): > 100 µM
TGI (T-47D breast): 89 µM
TGI (U251 CNS): > 100 µM
TGI (UACC-62 melanoma): > 100 µM
TGI (UO-31 renal): > 100 µM

CC(=O)Oc1c(C(=O)[O-])cc(C(C)C)cc1C(C)C.CC(=O)Oc1c(C(=O)[O-])cc(C(C)C)cc1C(C)C.CC(=O)Oc1c(C(=O)[O-])cc(C(C)C)cc1C(C)C.CC(=O)Oc1c(C(=O)[O-])cc(C(C)C)cc1C(C)C.[Cu+2].[Cu+2]
GI50 (786-0 renal): 63.6 µM
TGI (786-0 renal): > 100 µM
GI50 (A498 renal): 16 µM
TGI (A498 renal): 32.8 µM
GI50 (A549 NSCLC): 32.4 µM
TGI (A549 NSCLC): > 100 µM
GI50 (ACHN renal): 75.2 µM
TGI (ACHN renal): > 100 µM
GI50 (BT-549 breast): 16.7 µM
TGI (BT-549 breast): 38.5 µM
GI50 (CAKI-1 renal): > 100 µM
TGI (CAKI-1 renal): > 100 µM
GI50 (CCRF-CEM leukemia): 20.5 µM
TGI (CCRF-CEM leukemia): 53.7 µM
GI50 (COLO 205 colon): 21 µM
TGI (COLO 205 colon): 42.5 µM
GI50 (DU-145 prostate): 34.2 µM
TGI (DU-145 prostate): > 100 µM
GI50 (EKVX NSCLC): 37.5 µM
TGI (EKVX NSCLC): 73.2 µM
GI50 (HCT-116 colon): 28.7 µM
TGI (HCT-116 colon): > 100 µM
GI50 (HCT-15 colon): 27.5 µM
TGI (HCT-15 colon): > 100 µM
GI50 (HL-60(TB) leukemia): 22.7 µM
TGI (HL-60(TB) leukemia): 81.9 µM
GI50 (HOP-62 NSCLC): 25 µM
TGI (HOP-62 NSCLC): 54.4 µM
GI50 (HOP-92 NSCLC): 45.5 µM
TGI (HOP-92 NSCLC): > 100 µM
GI50 (HS 578T breast): 50.5 µM
TGI (HS 578T breast): > 100 µM
GI50 (HT29 colon): 37.5 µM
TGI (HT29 colon): > 100 µM
GI50 (IGROV1 ovarian): 30.4 µM
TGI (IGROV1 ovarian): > 100 µM
GI50 (KM12 colon): 19.1 µM
TGI (KM12 colon): > 100 µM
GI50 (LOX IMVI melanoma): 2.74 µM
TGI (LOX IMVI melanoma): 25.8 µM
GI50 (M14 melanoma): 49.3 µM
TGI (M14 melanoma): > 100 µM
GI50 (MCF7 breast): 21 µM
TGI (MCF7 breast): 65.2 µM
GI50 (MDA-MB-231 breast): 33.9 µM
TGI (MDA-MB-231 breast): > 100 µM
GI50 (MDA-MB-435): 3.18 µM
TGI (MDA-MB-435): 9.16 µM
GI50 (MDA-N): 18.8 µM
TGI (MDA-N): 33.4 µM
GI50 (MOLT-4 leukemia): 74.9 µM
TGI (MOLT-4 leukemia): > 100 µM
GI50 (NCI-H226 lung): 69.3 µM
TGI (NCI-H226 lung): > 100 µM
GI50 (NCI-H23 lung): 20.1 µM
TGI (NCI-H23 lung): 52.7 µM
GI50 (NCI-H460 lung): 34.8 µM
TGI (NCI-H460 lung): > 100 µM
GI50 (NCI-H522 lung): 18.5 µM
TGI (NCI-H522 lung): 33.3 µM
GI50 (OVCAR-3 ovarian): 27.3 µM
TGI (OVCAR-3 ovarian): 65.9 µM
GI50 (OVCAR-4 ovarian): 42.9 µM
TGI (OVCAR-4 ovarian): 97.1 µM
GI50 (OVCAR-5 ovarian): 57.2 µM
TGI (OVCAR-5 ovarian): > 100 µM
GI50 (OVCAR-8 ovarian): 30.6 µM
TGI (OVCAR-8 ovarian): > 100 µM
GI50 (PC-3 prostate): 57.3 µM
TGI (PC-3 prostate): > 100 µM
GI50 (SF-268 CNS): 38.7 µM
TGI (SF-268 CNS): > 100 µM
GI50 (SF-295 CNS): 24.4 µM
TGI (SF-295 CNS): 70.5 µM
GI50 (SF-539 CNS): 72.3 µM
TGI (SF-539 CNS): > 100 µM
GI50 (SK-MEL-2 melanoma): 40.8 µM
TGI (SK-MEL-2 melanoma): > 100 µM
GI50 (SK-MEL-28 melanoma): 17.9 µM
TGI (SK-MEL-28 melanoma): 33.4 µM
GI50 (SK-MEL-5 melanoma): 18 µM
TGI (SK-MEL-5 melanoma): 32.9 µM
GI50 (SK-OV-3 ovarian): 14.4 µM
TGI (SK-OV-3 ovarian): 35.4 µM
GI50 (SN12C renal): 19.8 µM
TGI (SN12C renal): 65.9 µM
GI50 (SNB-19 CNS): 26.3 µM
TGI (SNB-19 CNS): 61.7 µM
GI50 (SNB-75 CNS): 34.3 µM
TGI (SNB-75 CNS): 77.6 µM
GI50 (SW-620 colon): 42.1 µM
TGI (SW-620 colon): > 100 µM
GI50 (T-47D breast): 52 µM
TGI (T-47D breast): > 100 µM
GI50 (TK-10 renal): 33.7 µM
TGI (TK-10 renal): > 100 µM
GI50 (U251 CNS): 19.9 µM
TGI (U251 CNS): 51.5 µM
GI50 (UACC-257 melanoma): 18.2 µM
TGI (UACC-257 melanoma): 36.9 µM
GI50 (UACC-62 melanoma): 18.6 µM
TGI (UACC-62 melanoma): 39.9 µM
GI50 (UO-31 renal): 50.7 µM
TGI (UO-31 renal): > 100 µM

Source: PubChem BioAssay (NCI)
